One assay deals with rat cortical neurons. Kind of assay: Neurite outgrowth in primary neuronal cultures assay. Format: cell-based. On the set-up: key: A: Statistically significant mean increase as a percent of DMSO control at 10 μM or less; B: No statistically significant mean increase as a percent of DMSO control at 10 μM or less. As to conditions: 72h, vs DMSO control, 10 μM or less. An excerpt:
Neurite Outgrowth Assay. Neurite Outgrowth in Primary Neuronal Cultures Assay. Changes in the pattern of neurite outgrowth have been implicated in psychiatric and neurodegenerative disorders as well as traumatic injuries. The discovery of new compounds that can positively affect neuritogenesis are important for developing new therapeutics for neurological diseases. Measurement of neurite outgrowth of rat cortical neurons using an automated image-based assay was used to determine the neuroplastic effects of the compounds of the present disclosure. The neurite outgrowth assay was performed at Neurofit SAS (France) as described below.
Pregnant Wistar rats (Janvier; France) were used for the study. They were delivered 6 days before their use. Upon arrival at Neurofit animal facility, they were housed one per cage and maintained in a room with controlled temperature (21-22° C.) and a reversed light-dark cycle (12 h/12h; lights on: 17:30-05:30; lights off: 05:30-17:30) with food and water available ad libitum.
Female Wistar rats of 17 days gestation were killed by cervical dislocation and the fetuses were removed from the uterus. Their brains were placed in ice-cold medium of Leibovitz (L15, Gibco, Fisher bioblock, France). Cortices were dissected and meninges were carefully removed. The cortical neurons were dissociated by trypsinization for 30 min at 37° C. (trypsin-EDTA, Gibco) in presence of 0.1 mg/ml DNAse I (Roche, France). The reaction was stopped by addition of Dulbecco's Modified Eagle Medium (DMEM; Gibco) with 10% of fetal bovine serum (FBS; Gibco). The suspension was triturated with a 10-ml pipette and using a needle syringe 21G and centrifuged at 350×g for 10 min at room temperature. The pellet of dissociated cells was resuspended in a medium consisting of Neurobasal (Gibco) supplemented with 2% B27 supplement (Gibco), 0.5 mM L-Glutamine (Gibco), an antibiotic-antimicotic mixture. Viable cells were counted in a Neubauer cytometer using the trypan blue exclusion test (Sigma). Cells were seeded at a density of 10000 cells per well in 96-well plate (Costar) precoated with poly-L-lysine. Test compound at different concentrations were added to the cultures. Donepezil (positive control) was tested at 250 nM.
After 72h (3 days) of plating, cultures were fixed with paraformaldehyde in PBS (4%, Sigma) for 30 min at 4° C. Then, cells were successively permeabilized with 0.1% Triton X100 for 30 min, saturated with PBS containing 3% of BSA and were incubated 1 h with anti-beta III tubulin antibody (Sigma) at 1/10 000 in PBS containing 0.5% of BSA. Cells were washed three times with PBS containing 0.5% of BSA, and they were incubated 1 h with goat anti-mouse antibody coupled with AF488 (Invitrogen A11001) diluted at 1/1000 in PBS containing 0.5% of BSA. Finally, nuclei were staining with DAPI 1 mg/ml at 1/1000 in PBS containing 0.5% of BSA. After rinsing with PBS, the plate was filmed and neurite networks were examined and analyzed using High-Content Screening (CellInsight, Thermo Scientific). The average number of neurites per neuron and the average total length of neurites per neuron were the main parameters analyzed. Analysis of data was performed using analysis of variance (ANOVA). The Fisher's Protected Least Significant Difference test was used for multiple comparisons. A p value ≤0.05 was considered significant. The software used is StatView 5.0 from SAS Institut.

For assay [1], the target named is T1, 5-HT2A (Homo sapiens, UniProt P28223). Briefly: Serotonin 5-HT2A in vitro cellular IPOne agonism assay (HTRF). Format: cell-based. On the set-up: host or cells: CHO-K1. To be noted: CHO-K1 cells, 60 min. How it is done: Serotonin 5-HT2AIn Vitro Cellular IPOne Agonism Assay. The 5-HT2AIPOne HTRF assay was performed at Epics Therapeutics S. A. (Belgium, FAST-0505I) using conventional methods. Briefly, CHO—K1 cells expressing human recombinant 5-HT2A receptor grown to mid-log phase in culture media without antibiotics were detached with PBS-EDTA, centrifuged, and resuspended in medium without antibiotics buffer. 20,000 cells were distributed in a 96 well plate and incubated overnight at 37° C. with 5% Co2.
T1 sequence (P28223 whole entry): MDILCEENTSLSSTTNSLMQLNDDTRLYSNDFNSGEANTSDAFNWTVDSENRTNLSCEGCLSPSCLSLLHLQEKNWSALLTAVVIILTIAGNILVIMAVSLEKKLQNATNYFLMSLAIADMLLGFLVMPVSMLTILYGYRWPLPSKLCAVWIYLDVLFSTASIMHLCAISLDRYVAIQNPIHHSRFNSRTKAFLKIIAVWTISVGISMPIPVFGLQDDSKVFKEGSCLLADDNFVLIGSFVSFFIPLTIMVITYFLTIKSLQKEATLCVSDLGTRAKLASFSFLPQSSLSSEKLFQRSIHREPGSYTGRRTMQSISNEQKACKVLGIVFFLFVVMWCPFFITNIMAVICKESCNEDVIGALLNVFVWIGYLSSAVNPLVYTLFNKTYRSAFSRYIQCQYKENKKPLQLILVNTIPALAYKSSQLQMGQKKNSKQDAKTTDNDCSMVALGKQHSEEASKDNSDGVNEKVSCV
For agonist testing, the medium was removed and 20 μl of assay buffer plus 20 μl of test compound or reference agonist were added in each well. The plate was incubated for 60 min. at 37° C. with 5% CO2.
(§1) After addition of the lysis buffer containing IP1-d2 and anti-IP1 cryptate detection reagents, plates were incubated 1-hour at room temperature, and fluorescence ratios were measured according to the manufacturer specification, with the HTRF kit.
On the technique in general: Time-resolved FRET reads energy transfer from a long-lived donor to a nearby acceptor.

The target of assay [2] is T1, 5-HT2A. Briefly: Serotonin 5-HT2A in vitro radioligand binding competition assay ([3H]-DOI). Also on record: purchased Epics Therapeutics S. A. (Belgium), contract assay FAST-0505B; host or cells: membrane extracts. As to conditions: [3H]-DOI competition, membrane extracts; read-out: 5HT2A R[…] ACTIVITY
The protocol:
Serotonin 5-HT2AIn Vitro Radioligand Binding Competition Assay. The 5-HT2A radioligand binding competition assay was performed at Epics Therapeutics S. A. (Belgium, FAST-0505B) using conventional methods. Briefly, competition binding is performed in duplicate in the wells of a 96 well plate (Master Block, Greiner, 786201) containing binding buffer (optimized for each receptor), membrane extracts (amount of protein/well optimized for each receptor), radiotracer [3H]-DOI (final concentration optimized for each receptor) and test compound. Nonspecific binding was determined by co-incubation with 200-fold excess of cold competitor. The samples were incubated in a final volume of 0.1 ml at a temperature and for a duration optimized for each receptor and then filtered over filter plates. Filters were washed six times with 0.5 ml of ice-cold washing buffer (optimized for each receptor) and 50 µl of Microscint 20 (Packard) were added in each well. The plates were incubated 15 min on an orbital shaker and then counted with a TopCount™ for 1 min/well.

The target of assay [3] is T1, 5-HT2A. Kind of assay: Serotonin 5-HT2A in vitro cellular IPOne antagonism assay (HTRF). Also on record: host or cells: CHO-K1. To be noted: CHO-K1 cells, reference agonist a-Me-5HT. Format: cell-based. The protocol: Serotonin 5-HT2AIn Vitro Cellular IPOne Antagonism Assay. The 5-HT2AIPOne HTRF assay was performed at Epics Therapeutics S. A. (Belgium, FAST-0505I) in antagonism mode using conventional methods. Briefly, CHO—K1 cells expressing human recombinant 5-HT2A receptor grown to mid-log phase in culture media without antibiotics were detached with PBS-EDTA, centrifuged, and resuspended in medium without antibiotics buffer. 20,000 cells were distributed in a 96 well plate and incubated overnight at 37° C. with 5% Co2.
For antagonist testing, a reference agonist a-Me-5HT was added and fluorescence signal monitored for several minutes, followed by addition of 20 μl of assay buffer plus 20 μl of test compound or reference antagonist ketanserin, in each well. The plate was incubated for 60 min. at 37° C. with 5% CO2.
as §1

The values that follow come from US20260176253A1 (priority 2021, published 2026).

pEC50, pIC50: −log10 of the molar value.

Regarding `FC(F)(F)c1ccc2c3c([nH]c2c1)CC1CCCN1CC3` (centres unmarked) [Compound 12, 9-(trifluoromethyl)-1,2,3,5,6,11,12,12a-octahydropyrrolo[1′,2′:1,2]azepino[4,5-b]indole], in the assay on rat cortical neurons, the “INCREASE IN NEURITE BRANCHING” value was “A”, the “INCREASE IN NEURITE LENGTH” value is “A” and the “INCREASE IN NEURITE NUMBER” value is given as “B”. At 5-HT2A [1], this compound had a pEC50 of less than 5.00. Besides, on 5-HT2A [2], the pIC50 is 5.00 to 6.00.
As to `Cn1c2c(c3ccccc31)CC1CCCN1CC2` (centres unmarked) [Compound 6, 7-methyl-1,2,3,5,6,7,12,12a-octahydropyrrolo[1′,2′:1,7]azepino[4,5-b]indole], in the assay with rat cortical neurons, the “INCREASE IN NEURITE BRANCHING” value is on record as “B”, the “INCREASE IN NEURITE LENGTH” value is “A” and the “INCREASE IN NEURITE NUMBER” value is on record as “B”. The negative logarithm of the EC50 (pEC50) at 5-HT2A [1] is less than 5.00. For the same compound, at 5-HT2A [3], the pIC50 was 6.00 to 7.00. Also, the pIC50 at 5-HT2A [2] was 6.00 to 7.00.
On to `COc1ccc2c3c([nH]c2c1)C[C@@H]1CCCN1CC3` [Compound 17, (S)-9-methoxy-1,2,3,5,6,11,12,12a-octahydropyrrolo[1′,2′:1,2]azepino[4,5-b]indole], for which, in the assay on rat cortical neurons, the “INCREASE IN NEURITE BRANCHING” value is “A”, the “INCREASE IN NEURITE LENGTH” value is “A” and the “INCREASE IN NEURITE NUMBER” value is reported as “A”. Besides, at 5-HT2A [1], the pEC50 is less than 5.00. The compound also showed a pIC50 on 5-HT2A [3] of less than 5.00. In addition, the pIC50 at 5-HT2A [2] is less than 5.00.
Consider `c1ccc2c3c([nH]c2c1)CC1CCCN1CC3` (centres unmarked) [Compound 4, 1,2,3,5,6,11,12,12a-octahydropyrrolo[1′,2′;1,2]azepino[4,5-b]indole], for which, in the assay on rat cortical neurons, the “INCREASE IN NEURITE BRANCHING” value is recorded as “A”, the “INCREASE IN NEURITE LENGTH” value is “A” and the “INCREASE IN NEURITE NUMBER” value is listed as “A”. Further, the pEC50 at 5-HT2A [1] is 6.00 to 7.00. The compound also showed a pIC50 on 5-HT2A [3] of 6.00 to 7.00. Moreover, the pIC50 at 5-HT2A [2] is 6.00 to 7.00.
Regarding `Cn1c2c(c3ccccc31)CCN1CCCC1C2` (centres unmarked) [Compound 3, 11-methyl-1,2,3,5,6,11,12,12a-octahydropyrrolo[1′,2′:1,2]azepino[4,5-b]indole], in the assay with rat cortical neurons, the “INCREASE IN NEURITE BRANCHING” value is reported as “B”, the “INCREASE IN NEURITE LENGTH” value is “A” and the “INCREASE IN NEURITE NUMBER” value is listed as “B”. This compound also showed a pEC50 on 5-HT2A [1] of 5.00 to 6.00. The pIC50 at 5-HT2A [3] is 6.00 to 7.00. For the same compound, the pIC50 on 5-HT2A [2] is 6.00 to 7.00.
Turning to `c1ccc2c3c([nH]c2c1)C[C@@H]1CCCN1CC3` [Compound 19, (S)-1,2,3,5,6,11,12,12a-octahydropyrrolo[1′,2′:1,2]azepino[4,5-b]indole], in the assay with rat cortical neurons, the “INCREASE IN NEURITE BRANCHING” value is “A”, the “INCREASE IN NEURITE LENGTH” value is recorded as “A” and the “INCREASE IN NEURITE NUMBER” value is “A”. The pEC50 on 5-HT2A [1] was 6.00 to 7.00. For the same compound, the pIC50 on 5-HT2A [3] is 6.00 to 7.00. Moreover, the pIC50 at 5-HT2A [2] is 6.00 to 7.00.
Consider `COc1ccc2c3c([nH]c2c1)CC1CCCN1CC3` (centres unmarked) [Compound 2, 9-methoxy-1,2,3,5,6,11,12,12a-octahydropyrrolo[1′,2′:1,2]azepino[4,5-b]indole], for which, in the assay with rat cortical neurons, the “INCREASE IN NEURITE BRANCHING” value is recorded as “A”, the “INCREASE IN NEURITE LENGTH” value was “A” and the “INCREASE IN NEURITE NUMBER” value is listed as “B”. Also, the pEC50 on 5-HT2A [1] was less than 5.00. Further, on 5-HT2A [2], the pIC50 is less than 5.00.
Take `COc1cccc2[nH]c3c(c12)CC1CCCN1CC3` (centres unmarked) [Compound 5, 11-methoxy-1,2,3,5,6,7,12,12a-octahydropyrrolo[1′,2′:1,7]azepino[4,5-b]indole]: in the assay with rat cortical neurons, the “INCREASE IN NEURITE BRANCHING” value is “B”, the “INCREASE IN NEURITE LENGTH” value is given as “A” and the “INCREASE IN NEURITE NUMBER” value is “B”. In addition, the pEC50 on 5-HT2A [1] is 5.00 to 6.00. Moreover, the pIC50 on 5-HT2A [2] is 5.00 to 6.00.
Consider `COc1ccc2c3c([nH]c2c1)CCN1CCCC1C3` (centres unmarked) [Compound 1, 9-methoxy-1,2,3,5,6,7,12,12a-octahydropyrrolo[1′,2′:1,7]azepino[4,5-b]indole], for which, in the assay with rat cortical neurons, the “INCREASE IN NEURITE BRANCHING” value was “B”, the “INCREASE IN NEURITE LENGTH” value is given as “B” and the “INCREASE IN NEURITE NUMBER” value was “B”. In addition, the pEC50 on 5-HT2A [1] was less than 5.00. The pIC50 at 5-HT2A [2] was 5.00 to 6.00.

What is called pEC50 is the negative decadic logarithm of the EC50, by convention in mol/L.
